Target: T1, human Werner helicase (WRN-BV08, Uniprot Q14191, amino acids 517-1235 with L1074F point mutation) (Homo sapiens, UniProt Q14191, L1074F)
T1 construct: Uniprot Q14191, amino acids 517-1235 with L1074F point mutation; TEV-cleavable 8×His (C, cleaved yes); made in house; host or cells: Sf9 insect cells (baculovirus)
Experiment: WRN (BV08) ADP-Glo Assay
Type: biochemical
Details: 0.15 nM WRN, 5 μM ATP, 0.1 nM DNA duplex, 15 min preincubation, 60 min at 25° C., pH 7.5, 1% DMSO; read-out: ADP-Glo_hWRN_IC50
Outline: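 Percent inhibition was normalised to DMSO (max) and 20 μM NSC-617145 (min) controls from ADP-Glo luminescence, and IC50 values came from a four-parameter fit. The reaction ran 60 min at 25 °C with 0.15 nM WRN, 5 μM ATP and 0.1 nM duplex DNA.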

T1 sequence (Q14191 with tags, fused parts or gaps L1074F limits assumed): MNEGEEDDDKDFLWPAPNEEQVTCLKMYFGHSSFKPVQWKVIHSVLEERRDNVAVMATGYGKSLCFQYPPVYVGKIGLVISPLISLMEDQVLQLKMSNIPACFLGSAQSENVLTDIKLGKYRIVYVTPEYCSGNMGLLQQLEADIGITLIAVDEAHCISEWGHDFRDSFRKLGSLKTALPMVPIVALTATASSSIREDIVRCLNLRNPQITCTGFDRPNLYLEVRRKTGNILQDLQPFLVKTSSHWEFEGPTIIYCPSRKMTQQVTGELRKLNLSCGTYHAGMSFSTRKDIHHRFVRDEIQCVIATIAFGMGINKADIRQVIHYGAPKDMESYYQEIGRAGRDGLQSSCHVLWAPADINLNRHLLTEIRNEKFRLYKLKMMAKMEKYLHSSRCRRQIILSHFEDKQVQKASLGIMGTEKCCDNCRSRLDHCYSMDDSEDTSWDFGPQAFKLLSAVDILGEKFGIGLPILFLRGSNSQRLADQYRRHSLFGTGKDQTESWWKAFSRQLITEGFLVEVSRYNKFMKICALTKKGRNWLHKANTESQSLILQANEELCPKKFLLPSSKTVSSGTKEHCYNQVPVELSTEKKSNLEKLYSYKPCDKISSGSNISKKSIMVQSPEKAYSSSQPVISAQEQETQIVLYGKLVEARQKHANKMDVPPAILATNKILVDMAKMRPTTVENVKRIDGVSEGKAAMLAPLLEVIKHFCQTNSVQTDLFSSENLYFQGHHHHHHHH

| IC50 [µM] | SMILES |
| --- | --- |
| 0.5 to 5 | COc1cc(CN(C(=O)Cc2ccc(-c3ccc(F)cc3)cn2)C2C=CS(=O)(=O)C2)ccn1 (stereo not drawn) [I-175, N-(1,1-dioxo-2,3-dihydro-1lambda6-thiophen-3-yl)-2-[5-(4-fluorophenyl)pyridin-2-yl]-N-[(2-methoxypyridin-4-yl)methyl]acetamide] |
| > 50 | Cn1nc(-c2ccccc2)cc1CC(=O)N(Cc1ccncc1)C1C=CS(=O)(=O)C1 (stereo not drawn) [I-609, N-(1,1-dioxo-2,3-dihydro-1lambda6-thiophen-3-yl)-2-(1-methyl-3-phenyl-1H-pyrazol-5-yl)-N-[(pyridin-4-yl)methyl]acetamide] |
| 0.5 to 5 | N#Cc1csc(CN(C(=O)Cc2ccc(-n3cccc3)cc2)C2C=CS(=O)(=O)C2)n1 (stereo not drawn) [I-190, N-[(4-cyano-1,3-thiazol-2-yl)methyl]-N-(1,1-dioxo-2,3-dihydro-1lambda6-thiophen-3-yl)-2-[4-(1H-pyrrol-1-yl)phenyl]acetamide] |
| 10 to 50 | O=C(CCc1c[nH]c2cc(F)ccc12)N(Cc1ccncc1)C1C=CS(=O)(=O)C1 (stereo not drawn) [I-368, N-(1,1-dioxo-2,3-dihydro-1lambda6-thiophen-3-yl)-3-(6-fluoro-1H-indol-3-yl)-N-[(pyridin-4-yl)methyl]propanamide] |
| > 50 | O=C(Cc1cnn(-c2ccccc2)n1)N(Cc1ccncc1)C1C=CS(=O)(=O)C1 (stereo not drawn) [I-406, N-(1,1-dioxo-2,3-dihydro-1lambda6-thiophen-3-yl)-2-(2-phenyl-2H-1,2,3-triazol-4-yl)-N-[(pyridin-4-yl)methyl]acetamide] |
| > 50 | O=C(Cc1ccc(-c2nccs2)cc1)N(Cc1ccncc1)C1C=CS(=O)(=O)C1 (stereo not drawn) [I-466, N-(1,1-dioxo-2,3-dihydro-1lambda6-thiophen-3-yl)-N-[(pyridin-4-yl)methyl]-2-[4-(1,3-thiazol-2-yl)phenyl]acetamide] |
| 0.5 to 5 | O=C(Cc1ccc(-n2cccc2)cc1)N(Cc1ccnc(Cl)c1)C1C=CS(=O)(=O)C1 (stereo not drawn) [I-160, N-[(2-chloropyridin-4-yl)methyl]-N-(1,1-dioxo-2,3-dihydro-1lambda6-thiophen-3-yl)-2-[4-(1H-pyrrol-1-yl)phenyl]acetamide] |
| 5 to 10 | COc1cc(CN(C(=O)Cc2ccc(-c3ccc(F)cc3)cc2)C2C=CS(=O)(=O)C2)on1 (stereo not drawn) [I-247, N-(1,1-dioxo-2,3-dihydro-1lambda6-thiophen-3-yl)-2-{4′-fluoro-[1,1′-biphenyl]-4-yl}-N-[(3-methoxy-1,2-oxazol-5-yl)methyl]acetamide] |
| > 50 | O=C(Cc1ccc(-n2cccc2)cc1)N(Cc1ccc2[nH]ccc2c1)C1C=CS(=O)(=O)C1 (stereo not drawn) [I-498, N-(1,1-dioxo-2,3-dihydro-1lambda6-thiophen-3-yl)-N-[(1H-indol-5-yl)methyl]-2-[4-(1H-pyrrol-1-yl)phenyl]acetamide] |
| > 50 | COc1ccc(COc2cc(CC(=O)N(Cc3ccnc(OC)c3)C3C=CS(=O)(=O)C3)ccc2-c2ccc(F)cn2)cc1 (stereo not drawn) [I-451, N-(1,1-dioxo-2,3-dihydro-1lambda6-thiophen-3-yl)-2-[4-(5-fluoropyridin-2-yl)-3-[(4-methoxyphenyl)methoxy]phenyl]-N-[(2-methoxypyridin-4-yl)methyl]acetamide] |
| < 0.5 | COc1cc(CN(C(=O)Cc2ccc(S(F)(F)(F)(F)F)cc2)[C@@H]2C=CS(=O)(=O)C2)ccn1 [I-17, N-[(3R)-1,1-dioxo-2,3-dihydro-1lambda6-thiophen-3-yl]-N-[(2-methoxypyridin-4-yl)methyl]-2-[4-(pentafluoro-lambda6-sulfanyl)phenyl]acetamide] |
| 0.5 to 5 | CC(C)c1ccc(CC(=O)N(Cc2ccnc(C(C)(C)O)c2)C2C=CS(=O)(=O)C2)cc1 (stereo not drawn) [I-123, N-(1,1-dioxo-2,3-dihydro-1lambda6-thiophen-3-yl)-N-{[2-(2-hydroxypropan-2-yl)pyridin-4-yl]methyl}-2-[4-(propan-2-yl)phenyl]acetamide] |
| 5 to 10 | O=C(Cc1ccc(-n2cccc2)cc1)N(Cc1ccc2c(c1)OCO2)C1C=CS(=O)(=O)C1 (stereo not drawn) [I-225, N-[(2H-1,3-benzodioxol-5-yl)methyl]-N-(1,1-dioxo-2,3-dihydro-1lambda6-thiophen-3-yl)-2-[4-(1H-pyrrol-1-yl)phenyl]acetamide] |
| 0.5 to 5 | O=C(Cc1ccc(-n2cccc2)cc1)N(Cc1nc2c(s1)CCC2)C1C=CS(=O)(=O)C1 (stereo not drawn) [I-155, N-({4H,5H,6H-cyclopenta[d][1,3]thiazol-2-yl}methyl)-N-(1,1-dioxo-2,3-dihydro-1lambda6-thiophen-3-yl)-2-[4-(1H-pyrrol-1-yl)phenyl]acetamide] |
| 5 to 10 | COc1cc(CN(C(=O)Cc2ccc([C@@H]3C[C@H]3C(F)(F)F)cc2)[C@@H]2C=CS(=O)(=O)C2)ccn1 (mixture of isomers) [I-784, N-[(3R)-1,1-dioxo-2,3-dihydro-1lambda6-thiophen-3-yl]-N-[(2-methoxypyridin-4-yl)methyl]-2-{4-[(1RS,2RS)-2-(trifluoromethyl)cyclopropyl]phenyl}acetamide] |

Second part, the compound before the results:

| SMILES | IC50 [µM] |
| --- | --- |
| COc1cc(CN(C(=O)C(OC)c2ccc(-c3ccc(F)cc3)cc2F)C2C=CS(=O)(=O)C2)ccn1 (single isomer, unassigned) [I-366, (2R*)-2-{3,4′-difluoro-[1,1′-biphenyl]-4-yl}-N-[(3R**)-1,1-dioxo-2,3-dihydro-1lambda6-thiophen-3-yl]-2-methoxy-N-[(2-methoxypyridin-4-yl)methyl]acetamide] | > 50 |
| O=C(/C=C/c1ccc(C(F)(F)F)cc1)N(Cc1ccncc1)C1C=CS(=O)(=O)C1 (stereo not drawn) [I-529, (2E)-N-(1,1-dioxo-2,3-dihydro-1lambda6-thiophen-3-yl)-N-[(pyridin-4-yl)methyl]-3-[4-(trifluoromethyl)phenyl]prop-2-enamide] | > 50 |
| COC(C(=O)N(Cc1ccnc(C(C)(C)O)c1)C1C=CS(=O)(=O)C1)c1ccc(-c2ccc(F)c(F)c2)cc1F (single isomer, unassigned) [I-578, (2R*)-N-[(3R**)-1,1-dioxo-2,3-dihydro-1lambda6-thiophen-3-yl]-N-{[2-(2-hydroxypropan-2-yl)pyridin-4-yl]methyl}-2-methoxy-2-{3,3′,4′-trifluoro-[1,1′-biphenyl]-4-yl}acetamide] | 10 to 50 |
| O=C(Cc1ccc(S(F)(F)(F)(F)F)cc1)N(Cc1nc(C2CCC2)cs1)C1C=CS(=O)(=O)C1 (stereo not drawn) [I-14, N-[(4-cyclobutyl-1,3-thiazol-2-yl)methyl]-N-(1,1-dioxo-2,3-dihydro-1lambda6-thiophen-3-yl)-2-[4-(pentafluoro-lambda6-sulfanyl)phenyl]acetamide] | < 0.5 |
| Cc1ccc(-c2ccc(C(C(=O)N(C)C)C(=O)N(Cc3ccncc3)C3C=CS(=O)(=O)C3)cc2)cc1 (stereo not drawn) [I-277, N-(1,1-dioxo-2,3-dihydro-1lambda6-thiophen-3-yl)-N′,N′-dimethyl-2-{4′-methyl-[1,1′-biphenyl]-4-yl}-N-[(pyridin-4-yl)methyl]propanediamide] | 5 to 10 |
| COc1cc(CC(=O)N(Cc2ccncc2)C2C=CS(=O)(=O)C2)cc(OC)c1Br (stereo not drawn) [I-631, 2-(4-bromo-3,5-dimethoxyphenyl)-N-(1,1-dioxo-2,3-dihydro-1lambda6-thiophen-3-yl)-N-[(pyridin-4-yl)methyl]acetamide] | > 50 |
| O=C(Cc1ccc(S(F)(F)(F)(F)F)cc1)N(Cc1nc(C2CC2)cs1)C1C=CS(=O)(=O)C1 (single isomer, unassigned) [I-253] | 10 to 50 |
| CNC(=O)CC(C(=O)N(Cc1ccnc(OC)c1)C1C=CS(=O)(=O)C1)c1ccc(-c2ccc(F)cc2)cc1 (stereo not drawn) [I-574, N-(1,1-dioxo-2,3-dihydro-1lambda6-thiophen-3-yl)-2-{4′-fluoro-[1,1′-biphenyl]-4-yl}-N-[(2-methoxypyridin-4-yl)methyl]-N′-methylbutanediamide] | > 50 |
| CC(C)(O)c1cc(CN(C(=O)Cc2ccc(OC(F)(F)C(F)(F)F)cc2)C2C=CS(=O)(=O)C2)ccn1 (single isomer, unassigned) [I-661] | < 0.5 |
| COc1cc(CN(C(=O)Cn2ncc(-c3ccccc3)c2C)[C@@H]2C=CS(=O)(=O)C2)ccn1 [I-595, N-[(3R)-1,1-dioxo-2,3-dihydro-1lambda6-thiophen-3-yl]-N-[(2-methoxypyridin-4-yl)methyl]-2-(5-methyl-4-phenyl-1H-pyrazol-1-yl)acetamide] | 0.5 to 5 |
| CC(C(=O)N(Cc1ccnc(C(C)(C)O)c1)[C@@H]1C=CS(=O)(=O)C1)n1ccc(-c2ccc(F)c(F)c2)cc1=O (single isomer, unassigned) [I-769] | < 0.5 |
| O=C(Cn1cc(C2CC2)cn1)N(Cc1ccncc1)C1C=CS(=O)(=O)C1 (stereo not drawn) [I-429, 2-(4-cyclopropyl-1H-pyrazol-1-yl)-N-(1,1-dioxo-2,3-dihydro-1lambda6-thiophen-3-yl)-N-[(pyridin-4-yl)methyl]acetamide] | > 50 |
| COc1cc(CN(C(=O)C2Cc3cc(-c4ccc(F)cc4)ccc32)C2C=CS(=O)(=O)C2)ccn1 (stereo not drawn) [I-176, N-(1,1-dioxo-2,3-dihydro-1lambda6-thiophen-3-yl)-3-(4-fluorophenyl)-N-[(2-methoxypyridin-4-yl)methyl]bicyclo[4.2.0]octa-1,3,5-triene-7-carboxamide] | 0.5 to 5 |
| CC(C)(O)c1cc(CN(C(=O)C(c2ccc(-c3ccc(F)c(F)c3)cc2F)n2cccn2)[C@@H]2C=CS(=O)(=O)C2)ccn1 (single isomer, unassigned) [I-682] | < 0.5 |
| Cn1c(CC(=O)N(Cc2ccncc2)C2C=CS(=O)(=O)C2)nnc1-c1ccccc1 (stereo not drawn) [I-443, N-(1,1-dioxo-2,3-dihydro-1lambda6-thiophen-3-yl)-2-(4-methyl-5-phenyl-4H-1,2,4-triazol-3-yl)-N-[(pyridin-4-yl)methyl]acetamide] | > 50 |

Source: patent publication US20260297070A1, “CYCLIC [COMPOUND LEFT OUT] WRN INHIBITORS” (Nimbus Wadjet, Inc., priority 2023, published 2026)
